Measurements reported in ChEMBL document CHEMBL5584350, “Structural and Biochemical Insights into the Mechanism of Action of the Clinical USP1 Inhibitor, KSQ-4279” (J Med Chem, 2024).
Blank lines part the entries; values can stand above or below the molecule they belong to. The source made the active and inactive calls. The calls are words filed in the database; no cut-off is given here.

Key:
[1] = Selectivity index, ratio of inhibition of USP12 (unknown origin) to IC50 for human USP1
[2] = target: T1, Ubiquitin carboxyl-terminal hydrolase 1 (Homo sapiens) (UniProt O94782); conditions: dose 50.0 µM
T1 sequence (whole entry): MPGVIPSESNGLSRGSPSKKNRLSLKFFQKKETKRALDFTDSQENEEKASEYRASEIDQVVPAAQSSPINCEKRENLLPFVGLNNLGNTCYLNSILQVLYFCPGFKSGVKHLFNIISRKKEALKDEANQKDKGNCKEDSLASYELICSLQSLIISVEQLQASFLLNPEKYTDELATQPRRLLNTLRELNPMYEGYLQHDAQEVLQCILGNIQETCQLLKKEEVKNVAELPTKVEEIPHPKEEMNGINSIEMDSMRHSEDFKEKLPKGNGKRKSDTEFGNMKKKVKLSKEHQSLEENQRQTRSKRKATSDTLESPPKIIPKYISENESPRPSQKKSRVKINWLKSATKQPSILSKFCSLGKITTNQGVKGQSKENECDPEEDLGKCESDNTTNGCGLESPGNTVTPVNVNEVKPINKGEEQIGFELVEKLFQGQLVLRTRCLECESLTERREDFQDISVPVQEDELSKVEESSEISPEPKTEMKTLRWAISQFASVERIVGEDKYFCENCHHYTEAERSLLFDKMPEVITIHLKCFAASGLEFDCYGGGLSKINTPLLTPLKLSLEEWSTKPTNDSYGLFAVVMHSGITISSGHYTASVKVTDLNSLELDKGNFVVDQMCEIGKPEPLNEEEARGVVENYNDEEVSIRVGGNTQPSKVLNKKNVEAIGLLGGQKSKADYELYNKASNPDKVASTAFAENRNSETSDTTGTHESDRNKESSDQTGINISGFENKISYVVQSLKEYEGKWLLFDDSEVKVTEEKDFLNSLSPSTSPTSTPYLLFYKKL
Description: Thermal stabilization of human USP1 assessed as increase in melting temperature at 50 uM by SYPRO Orange dye based thermal shift assay

[3] = target: T1, Ubiquitin carboxyl-terminal hydrolase 1 (Homo sapiens); assay: Inhibition of human USP1 using FANC1-FANCD2Ub-ds DNA as substrate assessed as reduction in FANCD2 deubiquitination at 25 uM measured after 0 to 20 mins by instant-blue coomassie staining based SDS-PAGE analysis; conditions: time 0-20 min
[4] = target: Ubiquitin carboxyl-terminal hydrolase 11 (Homo sapiens) (UniProt P51784); assay: Inhibition of USP11 (unknown origin)
Sequence of Ubiquitin carboxyl-terminal hydrolase 11 (Homo sapiens) (P51784 whole entry, the tested form may be a part): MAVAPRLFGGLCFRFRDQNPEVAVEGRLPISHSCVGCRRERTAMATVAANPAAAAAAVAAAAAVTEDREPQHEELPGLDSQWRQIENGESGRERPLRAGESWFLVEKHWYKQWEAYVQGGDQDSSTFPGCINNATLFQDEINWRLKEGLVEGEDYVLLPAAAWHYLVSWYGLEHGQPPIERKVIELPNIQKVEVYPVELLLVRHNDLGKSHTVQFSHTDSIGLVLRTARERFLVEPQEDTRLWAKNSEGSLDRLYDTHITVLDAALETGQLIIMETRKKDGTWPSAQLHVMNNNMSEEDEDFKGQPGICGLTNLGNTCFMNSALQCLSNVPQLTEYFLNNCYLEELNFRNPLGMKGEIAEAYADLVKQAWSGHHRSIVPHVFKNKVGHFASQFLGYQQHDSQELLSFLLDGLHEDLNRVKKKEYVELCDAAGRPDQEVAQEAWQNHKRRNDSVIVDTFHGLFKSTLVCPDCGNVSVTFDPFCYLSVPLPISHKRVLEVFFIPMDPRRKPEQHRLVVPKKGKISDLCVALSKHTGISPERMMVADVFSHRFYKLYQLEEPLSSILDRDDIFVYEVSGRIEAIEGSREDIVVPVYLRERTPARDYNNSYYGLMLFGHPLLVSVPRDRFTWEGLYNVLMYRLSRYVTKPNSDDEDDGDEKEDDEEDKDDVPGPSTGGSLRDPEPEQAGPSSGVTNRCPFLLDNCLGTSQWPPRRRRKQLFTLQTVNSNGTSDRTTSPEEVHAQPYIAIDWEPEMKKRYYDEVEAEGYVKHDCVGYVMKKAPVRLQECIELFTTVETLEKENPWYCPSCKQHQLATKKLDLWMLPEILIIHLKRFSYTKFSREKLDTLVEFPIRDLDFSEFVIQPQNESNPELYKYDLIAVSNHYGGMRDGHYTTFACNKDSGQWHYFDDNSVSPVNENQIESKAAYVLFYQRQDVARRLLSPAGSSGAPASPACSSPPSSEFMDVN

Homo sapiens = species: Homo sapiens; assay: Thermal stabilization of human His6-smt3 fused USP7 catalytic domain (208 to 560 residues) expressed in Escherichia coli assessed as increase in melting temperature at 50 uM by SYPRO orange dye based thermal shift assay
[5] = test system: Ubiquitin carboxyl-terminal hydrolase 1 (Homo sapiens), O94782 [UNDEFINED MUTATION]; assay: (§1) Binding affinity to human His6 tagged/TEV fused USP1 229 to 408/608 to 737 residues disordered inserts deletion mutant expressed in Sf21 insect cells assessed as displacement of N85 by measuring alpha-chymotrypsin mediated protein truncation at F80 or R74 at 25 uM measured at 10 to 20 mins by instant-blue coomassie staining based SDS-PAGE analysis; conditions: time 10-20 min
[6] = test system: Ubiquitin carboxyl-terminal hydrolase 1 (Homo sapiens), O94782 [UNDEFINED MUTATION]; assay: as §1, with “trypsin” for “alpha-chymotrypsin”; conditions: time 10-20 min
[7] = target: Ubiquitin carboxyl-terminal hydrolase 12 (Homo sapiens) (UniProt O75317); assay: Inhibition of human USP12 at 100 uM by ubiquitin-rhodamine assay relative to control
Sequence of Ubiquitin carboxyl-terminal hydrolase 12 (Homo sapiens) (O75317 whole entry): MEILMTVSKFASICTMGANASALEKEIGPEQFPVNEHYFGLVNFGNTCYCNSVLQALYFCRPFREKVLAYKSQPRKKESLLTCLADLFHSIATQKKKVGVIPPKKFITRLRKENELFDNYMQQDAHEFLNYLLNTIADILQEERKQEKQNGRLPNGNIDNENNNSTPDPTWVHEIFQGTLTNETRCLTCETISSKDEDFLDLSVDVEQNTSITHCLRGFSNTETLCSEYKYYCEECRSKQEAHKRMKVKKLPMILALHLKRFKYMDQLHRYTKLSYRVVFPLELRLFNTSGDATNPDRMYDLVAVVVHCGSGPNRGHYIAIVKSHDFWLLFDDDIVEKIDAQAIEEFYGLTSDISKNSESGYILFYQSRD

[8] = target: Ubiquitin carboxyl-terminal hydrolase 46 (Homo sapiens) (UniProt P62068); assay: Inhibition of human USP46 at 100 uM by ubiquitin-rhodamine assay relative to control
Sequence of Ubiquitin carboxyl-terminal hydrolase 46 (Homo sapiens) (P62068 whole entry): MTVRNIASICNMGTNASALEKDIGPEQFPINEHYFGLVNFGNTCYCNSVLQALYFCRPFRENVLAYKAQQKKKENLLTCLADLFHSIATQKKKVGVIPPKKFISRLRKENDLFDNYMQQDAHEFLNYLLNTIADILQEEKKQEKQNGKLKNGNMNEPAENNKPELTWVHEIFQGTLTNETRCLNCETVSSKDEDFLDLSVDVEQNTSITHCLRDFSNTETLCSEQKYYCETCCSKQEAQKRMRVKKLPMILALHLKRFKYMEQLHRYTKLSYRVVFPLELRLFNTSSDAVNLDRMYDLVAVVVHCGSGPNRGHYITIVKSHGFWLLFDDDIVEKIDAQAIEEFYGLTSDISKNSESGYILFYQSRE

[9] = target: Ubiquitin carboxyl-terminal hydrolase 12 (Homo sapiens) (UniProt O75317); assay: Inhibition of USP12 (unknown origin) at 10 uM relative to control
[10] = target: Ubiquitin carboxyl-terminal hydrolase 46 (Homo sapiens) (UniProt P62068); assay: Inhibition of USP46 (unknown origin) at 10 uM relative to control

Selectivity Index [1]: 100
ΔTm [2]: 11 °C
inhibition [3]: inactive
inhibition [4]: inactive
Activity (Homo sapiens): inactive
SMILES: Cc1cnc(-c2ccccc2C(C)C)nc1NCc1ccc(-n2ccnn2)cc1

Activity [5]: inactive
Activity [6]: inactive
SMILES: O=C1c2ccccc2C(=O)c2oc(-c3ccccc3)nc21

inhibition [7]: < 50%
inhibition [4]: inactive
inhibition [8]: < 50%
Activity (Homo sapiens): inactive
SMILES: COc1ncnc(C2CC2)c1-c1ncc2cnn(Cc3ccc(-c4nc(C(F)(F)F)cn4C(C)C)cc3)c2n1

inhibition [9]: 50%
inhibition [10]: 50%
SMILES: CC(C)c1ccccc1-c1ncc2[nH]c(=O)n(Cc3ccc(-c4nc(C(F)(F)F)cn4C)cc3)c2n1
